Square brackets hold non-standard residues; d marks the D form. Peptide text beside a SMILES is read from it. * marks the point of attachment. Octanoyl = CCCCCCCC(=O)*
Experiments:
[1] = test system: MCF-7 breast cancer cells; test: MTT cell viability / anti-proliferative assay in MCF-7 cells; format: cell-based; settings: MCF7 cells, compared to peptide ST-BC1
Experimental: MCF-7 breast cancer cells set at a density of 2.5×10^4 cells/well in 150 μL of MEM medium+10% fetal bovine serum (FBS) in a 96 well dish. Lyophilized BCL9 peptides were reconstituted at a concentration of 10 mg/mL in 270 mM trehalose buffer and added to each well at a volume of 50 μL to a final concentration range of 2.5-40 μM. Cells were incubated with BCL9 peptides for 96 hours at 37° C.
Cell viability was quantified by spectrophotometry using Roche MTT cell proliferation assay kit according to manufacturer's instructions. Briefly, cells were washed with PBS, and incubated in fresh MEM medium with 10% FBS, 1% penicillin/streptomycin, and 1% non-essential amino acids, plus 10 μL MTT reagent at 37° C. for 4 hours. After 4 hours, 100 μL of solubilization solution was added, and cells were incubated overnight at 37° C. and 5% carbon dioxide. Absorbance was measured at OD570 nm with a reference of OD650 nm. The degree of absorption is proportional to the number of living cells. Percentage of absorbance relative to untreated controls was quantified and presented as % Cell Viability.
In functional assays, EC50 is the concentration that reduces a biological response by 50% of its maximum. In the case of BLC9 peptides, EC50 is measured as the concentration that reduces cell viability by 50% of its maximum. EC50 can be calculated by any number of means known in the art.

[2] = test system: HL60 promyelocytic leukemia cells; test: Cytotoxicity assay in HL60 cells (Annexin V FITC / PI flow cytometry); format: cell-based; settings: 48 hours, 0-80 μM, % Viability (Annexin V low, PI low)
Outline: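 HL60 cells at 3.5×10^3/well in RPMI + 1.5% FBS exposed to peptides at 0-80 μM final for 48 h at 37 °C. Viability by flow cytometry after Annexin V-FITC/PI staining, gated on FSC vs SSC. % Viability is the fraction that is Annexin V^low and PI^low.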

[3] = test system: MCF7 breast cancer cells; test: MCF7 subcutaneous tumor model, tumor volume; format: in vivo, NU/J mice; settings: for tumor volume relative to vehicle and to peptide control BCL-134: 1 mg/kg or 5 mg/kg s.c. three times weekly for three weeks, dosing from day 14, starting tumor about 340 mm^3, p≤0.0004
Experimental: In this experiment, we examined the effect of peptide BCL-26 on tumor volume in an MCF7 subcutaneous tumor model. Briefly, 2×10^6 MCF7 breast cancer cells, suspended 1:1 in Matrigel, were implanted via subcutaneous injection into the axilla of NU/J mice. Peptide BCL-26 was administered at a dose of 12.5 mg/kg via subcutaneous injection three times weekly for three weeks. Dosing was initiated on day 2 post tumor inoculation, with an average starting tumor volume of about 25 mm^3.
We also examined the effect of BCL9 mimetic peptides in established tumors. MCF7 cells were implanted into mice as described above. Peptide BCL-87 was administered at a dose of 5 mg/kg via subcutaneous injection three times weekly for three weeks. Dosing was initiated on day 21 post tumor inoculation, with an average starting tumor volume of about 470 mm^3.
We additionally examined the effect of different concentrations of mimetic peptides in established tumors. MCF7 cells were implanted into mice as described above. Peptides BCL-27 and BCL-87 were administered at a dose of 1 mg/kg or 5 mg/kg via subcutaneous injection three times weekly for three weeks. Dosing was initiated on day 14 post tumor inoculation, with an average starting tumor volume of about 340 mm^3.

## YGRKKRRQRRRLSQEQLEHRERSLQTLRDIQRMLF [BCL-21, TAT cell-penetrating region plus native BCL9 HD2 domain]
[1]
  anti-proliferative activity: inefficient at inhibiting cell proliferation

## CC(C)C[C@@H](NC(=O)[C@@H](Cc1c[nH]c2ccccc12)NC(=O)[C@H](N)Cc1c[nH]c2ccccc12)C(=O)N[C@H](C)C(=O)N[C@H](CCCNC(=N)N)C(=O)N[C@H](CCC(N)=O)C(=O)N[C@H](CC(C)C)C(=O)N[C@H](C)C(=O)N[C@H](CCCNC(=N)N)C(=O)N[C@H](CC(C)C)C(=O)N[C@H](C)C(=O)N[C@H](CCC(N)=O)C(=O)N[C@H](CC(C)C)C(=O)N[C@H](C)C(=O)N[C@H](CCCCN)C(=O)N[C@H](CC(C)C)C(=O)N[C@@H](C(=O)N1CCC[C@@H]1C(=O)N[C@@H](C(=O)O)C(C)C)[C@H](C)O [BCL-27, WWLARQLARLAQLAKLTPV] (H-[dW][dW][dL][dA][dR][dQ][dL][dA][dR][dL][dA][dQ][dL][dA][dK][dL][dT][dP][dV]-OH; N-terminus and C-terminus assumed)
[2]
  EC50: 2000 to 10000 nM
[3]
  tumor volume relative to vehicle and to peptide control BCL-134: significantly reduced tumor volume

## CC(C)C[C@@H](NC(=O)[C@@H](CCCNC(=N)N)NC(=O)[C@@H](C)NC(=O)[C@@H](CC(C)C)NC(=O)[C@@H](CCC(N)=O)NC(=O)[C@@H](CCCNC(=N)N)NC(=O)[C@@H](C)NC(=O)[C@@H](CC(C)C)NC(=O)[C@@H](Cc1c[nH]c2ccccc12)NC(=O)[C@@H](Cc1c[nH]c2ccccc12)NC(=O)CNC(=O)[C@@H](CCCNC(=N)N)NC(=O)CNC(=O)[C@@H](CC(=O)O)NC(=O)[C@@H](CO)NC(=O)[C@H]1CCCN1)C(=O)N[C@H](C)C(=O)N[C@H](CCC(N)=O)C(=O)N[C@H](CC(C)C)C(=O)N[C@H](C)C(=O)N[C@H](CCCCN)C(=O)N[C@H](CC(C)C)C(=O)N[C@@H](C(=O)N1CCC[C@@H]1C(=O)N[C@@H](C(=O)O)C(C)C)[C@H](C)O [BCL-87] (H-[dP][dS][dD]G[dR]G[dW][dW][dL][dA][dR][dQ][dL][dA][dR][dL][dA][dQ][dL][dA][dK][dL][dT][dP][dV]-OH; N-terminus and C-terminus assumed)
[2]
  EC50: 2000 to 10000 nM
[3]
  tumor volume relative to vehicle and to peptide control BCL-134: significantly reduced tumor volume
[3]; 5 mg/kg s.c. three times weekly for three weeks, dosing from day 21, starting tumor about 470 mm^3, p<0.005
  tumor volume relative to vehicle: significantly reduced tumor volume

## CSCC[C@@H](NC(=O)[C@@H](CC(C)C)NC(=O)[C@H](N)Cc1ccccc1)C(=O)N[C@H](CCCNC(=N)N)C(=O)N[C@H](CCC(N)=O)C(=O)N[C@H](CC(C)C)C(=O)N[C@H](CC(=O)O)C(=O)N[C@H](CCCNC(=N)N)C(=O)N[C@H](CC(C)C)C(=O)N[C@@H](C(=O)N[C@H](CCC(N)=O)C(=O)N[C@H](CC(C)C)C(=O)N[C@H](C)C(=O)N[C@H](CCCCN)C(=O)N[C@H](CC(C)C)C(=O)N[C@@H](C(=O)N1CCC[C@@H]1C(=O)N[C@@H](C(=O)O)C(C)C)[C@H](C)O)[C@H](C)O [BCL-26, FLMRQLDRLTQLAKLTPV] (H-[dF][dL][dM][dR][dQ][dL][dD][dR][dL][dT][dQ][dL][dA][dK][dL][dT][dP][dV]-OH; N-terminus and C-terminus assumed)
[2]
  EC50: > 10000 nM
[3]; 12.5 mg/kg s.c. three times weekly for three weeks, dosing from day 2, starting tumor about 25 mm^3, p<0.0001
  tumor volume relative to vehicle: significantly reduced tumor volume

## CC(C)C[C@@H](NC(=O)[C@@H](CCCNC(=N)N)NC(=O)[C@@H](C)NC(=O)[C@@H](CC(C)C)NC(=O)[C@@H](CCC(N)=O)NC(=O)[C@@H](CCCNC(=N)N)NC(=O)[C@H](NC(=O)[C@@H](CC(C)C)NC(=O)[C@@H](Cc1c[nH]c2ccccc12)NC(=O)[C@H](N)Cc1c[nH]c2ccccc12)C(C)C)C(=O)N[C@H](C)C(=O)N[C@H](CCC(N)=O)C(=O)N[C@H](CC(C)C)C(=O)N[C@H](C)C(=O)N[C@H](CCCCN)C(=O)N[C@H](CC(C)C)C(=O)N[C@@H](C(=O)N1CCC[C@@H]1C(=O)N[C@@H](C(=O)O)C(C)C)[C@H](C)O [BCL-91a] (H-[dW][dW][dL][dV][dR][dQ][dL][dA][dR][dL][dA][dQ][dL][dA][dK][dL][dT][dP][dV]-OH; N-terminus and C-terminus assumed)
[2]
  EC50: < 2000 nM

## CC(C)C[C@@H](NC(=O)[C@@H](C)NC(=O)[C@@H](C)NC(=O)[C@@H](CC(C)C)NC(=O)[C@@H](CCCNC(=N)N)NC(=O)[C@@H](C)NC(=O)[C@@H](CC(C)C)NC(=O)[C@@H](CCC(N)=O)NC(=O)[C@@H](CCCNC(=N)N)NC(=O)[C@@H](C)NC(=O)[C@@H](CC(C)C)NC(=O)[C@@H](Cc1c[nH]c2ccccc12)NC(=O)[C@H](Cc1c[nH]c2ccccc12)NC(=O)[C@H](N)Cc1ccccc1)C(=O)N[C@H](C)C(=O)N[C@H](CCCCN)C(=O)N[C@H](CC(C)C)C(=O)N[C@@H](C(=O)N1CCC[C@@H]1C(=O)N[C@@H](C(=O)O)C(C)C)[C@H](C)O [BCL-132] (H-[dF]W[dW][dL][dA][dR][dQ][dL][dA][dR][dL][dA][dA][dL][dA][dK][dL][dT][dP][dV]-OH; N-terminus and C-terminus assumed)
[2]
  EC50: < 2000 nM

## CC(C)C[C@@H](NC(=O)[C@@H](Cc1c[nH]c2ccccc12)NC(=O)[C@@H](N)Cc1c[nH]c2ccccc12)C(=O)N[C@H](C)C(=O)N[C@H](CCCNC(=N)N)C(=O)N[C@H](CCC(N)=O)C(=O)N[C@H](CC(C)C)C(=O)N[C@H](C)C(=O)N[C@H](CCCNC(=N)N)C(=O)N[C@H](CC(C)C)C(=O)N[C@H](CCCNC(=N)N)C(=O)N[C@H](CCC(N)=O)C(=O)N[C@H](CC(C)C)C(=O)N[C@H](C)C(=O)N[C@H](CCCCN)C(=O)N[C@H](CC(C)C)C(=O)N[C@@H](C(=O)N1CCC[C@@H]1C(=O)N[C@@H](C(=O)O)C(C)C)[C@H](C)O [BCL-96] (H-W[dW][dL][dA][dR][dQ][dL][dA][dR][dL][dR][dQ][dL][dA][dK][dL][dT][dP][dV]-OH; N-terminus and C-terminus assumed)
[2]
  EC50: < 2000 nM

## CCCCCCCC(=O)N1CCC[C@@H]1C(=O)N[C@H](CO)C(=O)N[C@H](CC(=O)O)C(=O)NCC(=O)N[C@H](CCCNC(=N)N)C(=O)NCC(=O)N[C@H](Cc1c[nH]c2ccccc12)C(=O)N[C@H](Cc1c[nH]c2ccccc12)C(=O)N[C@H](CC(C)C)C(=O)N[C@@H](C(=O)N[C@H](CCCNC(=N)N)C(=O)N[C@H](CCC(N)=O)C(=O)N[C@H](CC(C)C)C(=O)N[C@H](C)C(=O)N[C@H](CCCNC(=N)N)C(=O)N[C@H](CC(C)C)C(=O)N[C@H](C)C(=O)N[C@H](CCC(N)=O)C(=O)N[C@H](CC(C)C)C(=O)N[C@H](C)C(=O)N[C@H](CCCCN)C(=O)N[C@H](CC(C)C)C(=O)N[C@@H](C(=O)N1CCC[C@@H]1C(=O)N[C@@H](C(=O)O)C(C)C)[C@H](C)O)C(C)C [BCL-136a] (Octanoyl-[dP][dS][dD]G[dR]G[dW][dW][dL][dV][dR][dQ][dL][dA][dR][dL][dA][dQ][dL][dA][dK][dL][dT][dP][dV]-OH; C-terminus assumed)
[2]
  EC50: < 2000 nM

## CC(C)C[C@@H](NC(=O)[C@@H](Cc1c[nH]c2ccccc12)NC(=O)[C@@H](N)Cc1c[nH]c2ccccc12)C(=O)N[C@H](C)C(=O)N[C@H](CCCNC(=N)N)C(=O)N[C@H](CCC(N)=O)C(=O)N[C@H](CC(C)C)C(=O)N[C@H](CCC(=O)O)C(=O)N[C@H](CCCNC(=N)N)C(=O)N[C@H](CC(C)C)C(=O)N[C@H](C)C(=O)N[C@H](CCCNC(=N)N)C(=O)N[C@H](CC(C)C)C(=O)N[C@H](C)C(=O)N[C@H](CCCCN)C(=O)N[C@H](CC(C)C)C(=O)N[C@@H](C(=O)N1CCC[C@@H]1C(=O)N[C@@H](C(=O)O)C(C)C)[C@H](C)O [BCL-98] (H-W[dW][dL][dA][dR][dQ][dL][dE][dR][dL][dA][dR][dL][dA][dK][dL][dT][dP][dV]-OH; N-terminus and C-terminus assumed)
[2]
  EC50: 2000 to 10000 nM

Reference: patent publication US12552846B2, “Modified BCL9 mimetic peptides” (Sapience Therapeutics, Inc., priority 2019, dated 2026)
